ChEMBL document CHEMBL3137667, “[Drug-induced liver injury; fourteenth updated edition of the bibliographic database of liver injuries and related drugs]” (Gastroenterol Clin Biol, 2004)
*1 amine or outer side, *2 acyl side, *3 side chain or, on linkers, in order; H or OH if unused. Where a SMILES comes first, the peptide text is derived from it. Bridges are numbered along the chain shown (N, C = ends). [ ]: non-standard residue; d: D form. The star is where a group is joined. X1 = O=C1C[C@@H](C(=O)[*:2])N([*:1])C[C@H]1CS[C@@H]1CN2CCC1CC2; NMePhe(4-NMe2) = CN[C@@H](Cc1ccc(N(C)C)cc1)C(=O)O; Picolinoyl(3-OH) = O=C(c1ncccc1O)*; Phg = N[C@H](C(=O)O)c1ccccc1; dAbu = CC[C@@H](N)C(=O)O

Legend:
[1] = human
[2] = human; remark: listed apart in the source
[3] = human; remark: listed apart in the source
[4] = human, serum
[5] = Highest frequency of moderate liver toxicity observed during clinical trials, expressed as a percentage. [column '% BIOL' in source]; conditions: human
[6] = human, serum; remark: listed apart in the source
[7] = Highest frequency of acute liver toxicity observed during clinical trials, expressed as a percentage. [column '% AIGUE' in source]; conditions: human
[8] = human; remark: listed apart in the source
[9] = human, serum, 4383 h
[10] = human; remark: listed apart in the source
[11] = human; remark: listed apart in the source
[12] = human; remark: listed apart in the source
[13] = human; remark: listed apart in the source
[14] = human; remark: listed apart in the source
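For Hepatotoxicity (association with vascular disease) in this document: count of indexed literature references reporting vascular liver injury in humans, e.g. peliosis hepatitis, hepatic veno-occlusive disease or Budd-Chiari syndrome.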
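For Hepatotoxicity (benign tumour) in this document: value is a count of indexed literature references citing a benign tumour confirmed by histopathology.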
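For Hepatotoxicity (choleostasis) in this document: human cholestatic liver injury, shown by histopathology or by peak ALT or AST elevation over alkaline phosphatase ratio below 2, value counts indexed literature reports.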
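For Hepatotoxicity (chronic liver disease) in this document: chronic liver injury confirmed by histopathology or persistently raised serum aminotransferase activity beyond 6 months, value given as the count of indexed literature references.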
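For Hepatotoxicity (cirrhosis) in this document: value is a count of indexed literature references reporting cirrhosis confirmed by histopathology.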
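For Hepatotoxicity (cytolytic) in this document: human cytolytic liver injury, shown by histopathology or by a ratio above 5 of peak ALT or AST elevation to alkaline phosphatase elevation, value counts indexed references.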
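For Hepatotoxicity (granulomatous hepatitis) in this document: value is a count of indexed literature references reporting granulomatous liver disease confirmed by histopathology.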
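For Hepatotoxicity (malignant tumour) in this document: malignant tumour confirmed by histopathology, value gives the count of indexed literature references reporting it.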
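For Hepatotoxicity (severe hepatitis) in this document: human clinical data: severe hepatitis, meaning potentially life-threatening liver failure or clinically observed cases, the value counts how many indexed literature references report it.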
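For Hepatotoxicity (steatosis) in this document: steatosis confirmed by histopathology, value is the count of indexed references.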

CNC1CCCN(c2c(F)cc3c(=O)c(C(=O)O)cn(C4CC4)c3c2OC)C1 (stereo not given) [BALOFLOXACIN]
0%: Hepatotoxicity (acute) [7]
28.6%: Hepatotoxicity (moderate) [5]
23: Hepatotoxicity (moderate) [4]
0: Hepatotoxicity (cytolytic) [1] | Hepatotoxicity (choleostasis) [2] | Hepatotoxicity (malignant tumour) [3] | Hepatotoxicity (acute) [6] | Hepatotoxicity (cirrhosis) [8] | Hepatotoxicity (chronic liver disease) [9] | Hepatotoxicity (granulomatous hepatitis) [10] | Hepatotoxicity (benign tumour) [11] | Hepatotoxicity (severe hepatitis) [12] | Hepatotoxicity (steatosis) [13] | Hepatotoxicity (association with vascular disease) [14]

Clc1cccc(C(c2ccc3[nH]cnc3c2)n2ccnc2)c1 (stereo not given) [LIAROZOLE]
2.9%: Hepatotoxicity (moderate) [5]
0: Hepatotoxicity (cytolytic) [1] | Hepatotoxicity (choleostasis) [2] | Hepatotoxicity (malignant tumour) [3] | Hepatotoxicity (acute) [6] | Hepatotoxicity (cirrhosis) [8] | Hepatotoxicity (chronic liver disease) [9] | Hepatotoxicity (granulomatous hepatitis) [10] | Hepatotoxicity (benign tumour) [11] | Hepatotoxicity (severe hepatitis) [12] | Hepatotoxicity (steatosis) [13] | Hepatotoxicity (association with vascular disease) [14]
1: Hepatotoxicity (moderate) [4]
0%: Hepatotoxicity (acute) [7]

Cc1cc2c(C(C)C)c(O)c(O)c(C=O)c2c(O)c1-c1c(C)cc2c(C(C)C)c(O)c(O)c(C=O)c2c1O [GOSSYPOL]
0: Hepatotoxicity (cytolytic) [1] | Hepatotoxicity (choleostasis) [2] | Hepatotoxicity (malignant tumour) [3] | Hepatotoxicity (acute) [6] | Hepatotoxicity (cirrhosis) [8] | Hepatotoxicity (chronic liver disease) [9] | Hepatotoxicity (granulomatous hepatitis) [10] | Hepatotoxicity (benign tumour) [11] | Hepatotoxicity (severe hepatitis) [12] | Hepatotoxicity (steatosis) [13] | Hepatotoxicity (association with vascular disease) [14]
0%: Hepatotoxicity (acute) [7]
1: Hepatotoxicity (moderate) [4]
93%: Hepatotoxicity (moderate) [5]

[H]/N=C(\N/C(=N/[H])NCCCCCCNC(=N)NC(=N)Nc1ccc(Cl)cc1)Nc1ccc(Cl)cc1 [CHLORHEXIDINE]
0: Hepatotoxicity (cytolytic) [1] | Hepatotoxicity (choleostasis) [2] | Hepatotoxicity (malignant tumour) [3] | Hepatotoxicity (moderate) [4] | Hepatotoxicity (cirrhosis) [8] | Hepatotoxicity (chronic liver disease) [9] | Hepatotoxicity (granulomatous hepatitis) [10] | Hepatotoxicity (benign tumour) [11] | Hepatotoxicity (severe hepatitis) [12] | Hepatotoxicity (steatosis) [13] | Hepatotoxicity (association with vascular disease) [14]
0%: Hepatotoxicity (moderate) [5] | Hepatotoxicity (acute) [7]
1: Hepatotoxicity (acute) [6]

COCC1=C(C(=O)OC(C)OC(=O)OC(C)C)N2C(=O)[C@@H](NC(=O)/C(=N\OC)c3csc(N)n3)[C@H]2SC1 (stereo not given in full) [CEFPODOXIME PROXETIL]
13: Hepatotoxicity (moderate) [4]
0%: Hepatotoxicity (acute) [7]
7.1%: Hepatotoxicity (moderate) [5]
0: Hepatotoxicity (cytolytic) [1] | Hepatotoxicity (choleostasis) [2] | Hepatotoxicity (malignant tumour) [3] | Hepatotoxicity (acute) [6] | Hepatotoxicity (cirrhosis) [8] | Hepatotoxicity (chronic liver disease) [9] | Hepatotoxicity (granulomatous hepatitis) [10] | Hepatotoxicity (benign tumour) [11] | Hepatotoxicity (severe hepatitis) [12] | Hepatotoxicity (steatosis) [13] | Hepatotoxicity (association with vascular disease) [14]

CC(C)/N=C/Nc1ccc(-c2c[nH]cn2)cc1 [MIFENTIDINE]
0: Hepatotoxicity (cytolytic) [1] | Hepatotoxicity (choleostasis) [2] | Hepatotoxicity (malignant tumour) [3] | Hepatotoxicity (acute) [6] | Hepatotoxicity (cirrhosis) [8] | Hepatotoxicity (chronic liver disease) [9] | Hepatotoxicity (granulomatous hepatitis) [10] | Hepatotoxicity (benign tumour) [11] | Hepatotoxicity (severe hepatitis) [12] | Hepatotoxicity (steatosis) [13] | Hepatotoxicity (association with vascular disease) [14]
1: Hepatotoxicity (moderate) [4]
3.3%: Hepatotoxicity (moderate) [5]
0%: Hepatotoxicity (acute) [7]

CO/N=C(\C(=O)N[C@@H]1C(=O)N2C(C(=O)O)=CCS[C@H]12)c1csc(N)n1 [CEFTIZOXIME]
4: Hepatotoxicity (acute) [6]
1: Hepatotoxicity (cytolytic) [1] | Hepatotoxicity (choleostasis) [2]
35%: Hepatotoxicity (moderate) [5]
1.4%: Hepatotoxicity (acute) [7]
32: Hepatotoxicity (moderate) [4]
0: Hepatotoxicity (malignant tumour) [3] | Hepatotoxicity (cirrhosis) [8] | Hepatotoxicity (chronic liver disease) [9] | Hepatotoxicity (granulomatous hepatitis) [10] | Hepatotoxicity (benign tumour) [11] | Hepatotoxicity (severe hepatitis) [12] | Hepatotoxicity (steatosis) [13] | Hepatotoxicity (association with vascular disease) [14]

CO[C@H]1/C=C/O[C@@]2(C)Oc3c(C)c(O)c4c(O)c(c5c(nc6cc(C)ccn65)c4c3C2=O)NC(=O)/C(C)=C\C=C\[C@H](C)[C@H](O)[C@@H](C)[C@@H](O)[C@@H](C)[C@H](OC(C)=O)[C@@H]1C [RIFAXIMIN]
26.7%: Hepatotoxicity (moderate) [5]
27: Hepatotoxicity (moderate) [4]
0%: Hepatotoxicity (acute) [7]
0: Hepatotoxicity (cytolytic) [1] | Hepatotoxicity (choleostasis) [2] | Hepatotoxicity (malignant tumour) [3] | Hepatotoxicity (acute) [6] | Hepatotoxicity (cirrhosis) [8] | Hepatotoxicity (chronic liver disease) [9] | Hepatotoxicity (granulomatous hepatitis) [10] | Hepatotoxicity (benign tumour) [11] | Hepatotoxicity (severe hepatitis) [12] | Hepatotoxicity (steatosis) [13] | Hepatotoxicity (association with vascular disease) [14]

CC1CCN(CCCC(=O)c2ccc(F)cc2)CC1 [MELPERONE]
0: Hepatotoxicity (cytolytic) [1] | Hepatotoxicity (choleostasis) [2] | Hepatotoxicity (malignant tumour) [3] | Hepatotoxicity (acute) [6] | Hepatotoxicity (cirrhosis) [8] | Hepatotoxicity (chronic liver disease) [9] | Hepatotoxicity (granulomatous hepatitis) [10] | Hepatotoxicity (benign tumour) [11] | Hepatotoxicity (severe hepatitis) [12] | Hepatotoxicity (steatosis) [13] | Hepatotoxicity (association with vascular disease) [14]
2: Hepatotoxicity (moderate) [4]
12%: Hepatotoxicity (moderate) [5]
0%: Hepatotoxicity (acute) [7]

CCN(CC)CCS(=O)(=O)[C@@H]1CCN2C(=O)c3coc(n3)CC(=O)C[C@H](O)/C=C(C)/C=C/CNC(=O)/C=C/[C@@H](C)[C@@H](C(C)C)OC(=O)[C@@H]12.CC[C@H]1NC(=O)[C@@H](NC(=O)c2ncccc2O)[C@@H](C)OC(=O)[C@H](c2ccccc2)NC(=O)[C@@H]2CC(=O)[C@H](CS[C@@H]3CN4CCC3CC4)CN2C(=O)[C@H](Cc2ccc(N(C)C)cc2)N(C)C(=O)[C@@H]2CCCN2C1=O [QUINUPRISTIN/DALFOPRISTIN] ({Picolinoyl(3-OH)}-T[dAbu]P[NMePhe(4-NMe2)][X1][Phg]; ester 1-C)
8: Hepatotoxicity (moderate) [4]
0%: Hepatotoxicity (acute) [7]
0: Hepatotoxicity (cytolytic) [1] | Hepatotoxicity (choleostasis) [2] | Hepatotoxicity (malignant tumour) [3] | Hepatotoxicity (acute) [6] | Hepatotoxicity (cirrhosis) [8] | Hepatotoxicity (chronic liver disease) [9] | Hepatotoxicity (granulomatous hepatitis) [10] | Hepatotoxicity (benign tumour) [11] | Hepatotoxicity (severe hepatitis) [12] | Hepatotoxicity (steatosis) [13] | Hepatotoxicity (association with vascular disease) [14]
7.1%: Hepatotoxicity (moderate) [5]

CN1CC[C@@H]2Nc3ccccc3[C@@H]2C1.Cl.Cl
0%: Hepatotoxicity (moderate) [5] | Hepatotoxicity (acute) [7]
0: Hepatotoxicity (cytolytic) [1] | Hepatotoxicity (malignant tumour) [3] | Hepatotoxicity (moderate) [4] | Hepatotoxicity (cirrhosis) [8] | Hepatotoxicity (chronic liver disease) [9] | Hepatotoxicity (granulomatous hepatitis) [10] | Hepatotoxicity (benign tumour) [11] | Hepatotoxicity (severe hepatitis) [12] | Hepatotoxicity (steatosis) [13] | Hepatotoxicity (association with vascular disease) [14]
1: Hepatotoxicity (choleostasis) [2] | Hepatotoxicity (acute) [6]

CC[N+](C)(C/C=C/C1=C(C(=O)[O-])N2C(=O)[C@@H](NC(=O)/C(=N\OCF)c3nsc(N)n3)[C@H]2SC1)CC(N)=O (stereo not given in full)
0%: Hepatotoxicity (acute) [7]
0: Hepatotoxicity (cytolytic) [1] | Hepatotoxicity (choleostasis) [2] | Hepatotoxicity (malignant tumour) [3] | Hepatotoxicity (acute) [6] | Hepatotoxicity (cirrhosis) [8] | Hepatotoxicity (chronic liver disease) [9] | Hepatotoxicity (granulomatous hepatitis) [10] | Hepatotoxicity (benign tumour) [11] | Hepatotoxicity (severe hepatitis) [12] | Hepatotoxicity (steatosis) [13] | Hepatotoxicity (association with vascular disease) [14]
51: Hepatotoxicity (moderate) [4]
37.5%: Hepatotoxicity (moderate) [5]

NEDAPLATIN
1: Hepatotoxicity (moderate) [4]
0%: Hepatotoxicity (acute) [7]
0: Hepatotoxicity (cytolytic) [1] | Hepatotoxicity (choleostasis) [2] | Hepatotoxicity (malignant tumour) [3] | Hepatotoxicity (acute) [6] | Hepatotoxicity (cirrhosis) [8] | Hepatotoxicity (chronic liver disease) [9] | Hepatotoxicity (granulomatous hepatitis) [10] | Hepatotoxicity (benign tumour) [11] | Hepatotoxicity (severe hepatitis) [12] | Hepatotoxicity (steatosis) [13] | Hepatotoxicity (association with vascular disease) [14]
19.2%: Hepatotoxicity (moderate) [5]

CNC(=O)c1cccc2c(Nc3ccc(NS(C)(=O)=O)cc3OC)c3cccc(C)c3nc12 [ASULACRINE]
17%: Hepatotoxicity (moderate) [5]
0: Hepatotoxicity (cytolytic) [1] | Hepatotoxicity (choleostasis) [2] | Hepatotoxicity (malignant tumour) [3] | Hepatotoxicity (acute) [6] | Hepatotoxicity (cirrhosis) [8] | Hepatotoxicity (chronic liver disease) [9] | Hepatotoxicity (granulomatous hepatitis) [10] | Hepatotoxicity (benign tumour) [11] | Hepatotoxicity (severe hepatitis) [12] | Hepatotoxicity (steatosis) [13] | Hepatotoxicity (association with vascular disease) [14]
0%: Hepatotoxicity (acute) [7]
2: Hepatotoxicity (moderate) [4]

O=C(O)c1ccccc1C(=O)Nc1ccc(S(=O)(=O)Nc2nccs2)cc1 [PHTHALYLSULFATHIAZOLE]
1: Hepatotoxicity (acute) [6]
0%: Hepatotoxicity (moderate) [5] | Hepatotoxicity (acute) [7]
0: Hepatotoxicity (cytolytic) [1] | Hepatotoxicity (choleostasis) [2] | Hepatotoxicity (malignant tumour) [3] | Hepatotoxicity (moderate) [4] | Hepatotoxicity (cirrhosis) [8] | Hepatotoxicity (chronic liver disease) [9] | Hepatotoxicity (granulomatous hepatitis) [10] | Hepatotoxicity (benign tumour) [11] | Hepatotoxicity (severe hepatitis) [12] | Hepatotoxicity (steatosis) [13] | Hepatotoxicity (association with vascular disease) [14]
